How the values were obtained:
crabgrass = assay: Test A pre-/postemergence greenhouse test; type: in vivo, Digitaria sanguinalis; conditions: for Plant response rating, Crabgrass, Large: 0 to 100 scale where 0 is no effect and 100 is complete control; for Crabgrass, Large plant response rating: 0 to 100 scale
Procedure, shortened: (§1)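 Planting was into mixed loam soil and sand; preemergence treatment followed as a directed soil spray. Concurrently, emerged plants (one- to two-leaf, 2–10 cm) received postemergence applications of identically formulated compound (non-phytotoxic solvent, surfactant). After approximately ten days under greenhouse conditions, injury was judged by eye against untreated plants.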

giant foxtail [1] = assay: Test A pre-/postemergence greenhouse test; type: in vivo, Setaria faberi; conditions: for Plant response rating, Foxtail, Giant: 0 to 100 scale where 0 is no effect and 100 is complete control; for Foxtail, Giant plant response rating: 0 to 100 scale
Procedure, shortened: as §1

morningglory [2] = assay: Test A pre-/postemergence greenhouse test; type: in vivo, Ipomoea spp.; conditions: for Plant response rating, Morningglory: 0 to 100 scale where 0 is no effect and 100 is complete control; for Morningglory plant response rating: 0 to 100 scale
Procedure, shortened: as §1

wheat = assay: Test A pre-/postemergence greenhouse test; type: in vivo, Triticum aestivum; conditions: for Plant response rating, Wheat: 0 to 100 scale where 0 is no effect and 100 is complete control; for Wheat plant response rating: 0 to 100 scale
Procedure, shortened: as §1

downy brome = assay: Test C pre-/postemergence test; type: in vivo, Bromus tectorum
Procedure, shortened: (§2)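 Compounds in a non-phytotoxic solvent with surfactant applied preemergence to seeded pots and, at the same time, postemergence to plants 2–18 cm tall (1- to 4-leaf stage). Paddy tests: pots flooded to 3 cm, compound applied into the water, depth held throughout.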

cocklebur = assay: Test C pre-/postemergence test; type: in vivo, Xanthium strumarium
Procedure, shortened: as §2

corn = assay: Test C pre-/postemergence test; type: in vivo, Zea mays
Procedure, shortened: as §2

woolly cupgrass = assay: Test C pre-/postemergence test; type: in vivo, Eriochloa villosa
Procedure, shortened: as §2

giant foxtail [3] = assay: Test C pre-/postemergence test; type: in vivo, Setaria faberii
Procedure, shortened: as §2

Goosegrass = assay: Test C pre-/postemergence test; type: in vivo, Eleusin indica
Procedure, shortened: as §2

johnsongrass = assay: Test C pre-/postemergence test; type: in vivo, Sorghum halepense
Procedure, shortened: as §2

lambsquarters = assay: Test C pre-/postemergence test; type: in vivo, Chenopodium album
Procedure, shortened: as §2

morningglory [4] = assay: Test C pre-/postemergence test; type: in vivo, Ipomoea coccinea
Procedure, shortened: as §2

yellow nutsedge = assay: Test C pre-/postemergence test; type: in vivo, Cyperus esculentus
Procedure, shortened: as §2

common ragweed = assay: Test C pre-/postemergence test; type: in vivo, Ambrosia elation
Procedure, shortened: as §2

soybean = assay: Test C pre-/postemergence test; type: in vivo, Glycine max
Procedure, shortened: as §2

umbrella sedge = assay: Test C flooded paddy test; type: in vivo, Cyperus difformis; conditions: Flood, 250 g ai/ha; scale 0 to 100, 0 no effect, 100 complete control; 13 to 15 days
Procedure, shortened: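 Test compounds are applied straight into paddy water held 3 cm above the soil surface, with that flood maintained for the whole test. After 13 to 15 days in the greenhouse, each species is scored visually relative to controls.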

[5] = Postemergence, 500 g ai/ha, 0 is no effect, 100 is complete control
[6] = Preemergence, 125 g ai/ha, 0 no effect, 100 complete control
[7] = 62 g ai/ha, Preemergence, scale 0 to 100
[8] = 125 g ai/ha, preemergence, scale 0 (no effect) to 100 (complete control)
[9] = Preemergence, 31 g ai/ha, scale 0 to 100 (0 no effect, 100 complete control)
[10] = preemergence, 250 g ai/ha, scale 0 (no effect) to 100 (complete control)

CC(c1c(C(F)(F)F)nn(CC(F)(F)F)c1Cl)[S+]([O-])c1cccc[n+]1[O-] (centres unmarked) [Compound 46]
Plant response rating, Crabgrass, Large (crabgrass; Postemergence, 125 g ai/ha): 70 | Crabgrass, Large plant response rating (crabgrass; [5]): 80 | Crabgrass, Large plant response rating (crabgrass; [6]): 70 | Plant response rating, Crabgrass, Large (crabgrass; Preemergence, 500 g ai/ha): 100 | Plant response rating, Foxtail, Giant (giant foxtail [1]; Postemergence, 125 g ai/ha): 70 | Foxtail, Giant plant response rating (giant foxtail [1]; [5]): 80 | Foxtail, Giant plant response rating (giant foxtail [1]; [6]): 90 | Plant response rating, Foxtail, Giant (giant foxtail [1]; Preemergence, 500 g ai/ha): 100 | Plant response rating, Morningglory (morningglory [2]; Postemergence, 125 g ai/ha): 0 | Morningglory plant response rating (morningglory [2]; [5]): 60 | Morningglory plant response rating (morningglory [2]; [6]): 30 | Plant response rating, Morningglory (morningglory [2]; Preemergence, 500 g ai/ha): 90 | Plant response rating, Wheat (wheat; Postemergence, 125 g ai/ha): 0 | Wheat plant response rating (wheat; [5]): 50 | Wheat plant response rating (wheat; [6]): 0 | Plant response rating, Wheat (wheat; Preemergence, 500 g ai/ha): 60 | Bromegrass, Downy plant response rating (downy brome; [7]): 0 | Bromegrass, Downy plant response rating (downy brome; [8]): 10 | Plant response rating, Bromegrass, Downy (downy brome; [9]): 0 | Bromegrass, Downy plant response rating (downy brome; [10]): 15 | Cocklebur plant response rating (cocklebur; [7]): 0 | Cocklebur plant response rating (cocklebur; [8]): 0 | Plant response rating, Cocklebur (cocklebur; [9]): 0 | Cocklebur plant response rating (cocklebur; [10]): 10 | Corn plant response rating (corn; [7]): 0 | Corn plant response rating (corn; [8]): 0 | Plant response rating, Corn (corn; [9]): 0 | Corn plant response rating (corn; [10]): 55 | Cupgrass, Woolly plant response rating (woolly cupgrass; [7]): 80 | Cupgrass, Woolly plant response rating (woolly cupgrass; [8]): 95 | Plant response rating, Cupgrass, Woolly (woolly cupgrass; [9]): 80 | Cupgrass, Woolly plant response rating (woolly cupgrass; [10]): 95 | Foxtail, Giant plant response rating (giant foxtail [3]; [7]): 100 | Foxtail, Giant plant response rating (giant foxtail [3]; [8]): 100 | Plant response rating, Foxtail, Giant (giant foxtail [3]; [9]): 85 | Foxtail, Giant plant response rating (giant foxtail [3]; [10]): 100 | Goosegrass plant response rating (Goosegrass; [7]): 100 | Goosegrass plant response rating (Goosegrass; [8]): 100 | Plant response rating, Goosegrass (Goosegrass; [9]): 98 | Goosegrass plant response rating (Goosegrass; [10]): 100 | Johnsongrass plant response rating (johnsongrass; [7]): 80 | Johnsongrass plant response rating (johnsongrass; [8]): 90 | Plant response rating, Johnsongrass (johnsongrass; [9]): 40 | Johnsongrass plant response rating (johnsongrass; [10]): 100 | Lambsquarters plant response rating (lambsquarters; [7]): 90 | Lambsquarters plant response rating (lambsquarters; [8]): 100 | Plant response rating, Lambsquarters (lambsquarters; [9]): 0 | Lambsquarters plant response rating (lambsquarters; [10]): 100 | Morningglory plant response rating (morningglory [4]; [7]): 100 | Morningglory plant response rating (morningglory [4]; [8]): 100 | Plant response rating, Morningglory (morningglory [4]; [9]): 100 | Morningglory plant response rating (morningglory [4]; [10]): 100 | Nutsedge, Yellow plant response rating (yellow nutsedge; [7]): 60 | Nutsedge, Yellow plant response rating (yellow nutsedge; [8]): 65 | Plant response rating, Nutsedge, Yellow (yellow nutsedge; [9]): 60 | Nutsedge, Yellow plant response rating (yellow nutsedge; [10]): 100 | Ragweed plant response rating (common ragweed; [7]): 0 | Ragweed plant response rating (common ragweed; [8]): 5 | Plant response rating, Ragweed (common ragweed; [9]): 0 | Ragweed plant response rating (common ragweed; [10]): 60 | Soybean plant response rating (soybean; [7]): 0 | Soybean plant response rating (soybean; [8]): 0 | Plant response rating, Soybean (soybean; [9]): 0 | Soybean plant response rating (soybean; [10]): 25 | Plant response rating, Sedge, Umbrella (umbrella sedge): 70

— US20100298141A1, “SUBSTITUTED PYRIDINE N-OXIDE HERBICIDES” (E. I. DU PONT DE NEMOURS AND COMPANY, priority 2007, published 2010)
